Assay results taken from patent US20220251054A1, “Analogues and Methods of Treating Rett Syndrome” (The Regents of the University of California, priority 2019, published 2022).
“Also recorded” adds a separate entry of the source.

Experiments:
Cx+GE organoids = experiment: Live organoid calcium imaging (GCaMP6f) with GABAA receptor antagonist; type: cell-based, human; settings: for synchronization of calcium transients / neural activities: Cx+GE organoids, bicuculline methiodide 100 μM or gabazine 25 μM
Cx+Cx organoids = experiment: as above; type: cell-based, human; settings: for synchronization of calcium transients / neural activities: Cx+Cx organoids, bicuculline methiodide 100 μM or gabazine 25 μM
[1] = tested on: MECP2− (Mutant) interneurons; experiment: P21 protein immunofluorescence (senescence marker) in treated neurons; type: cell-based; settings: 10 μM, 48 hours, WT and Mutant interneurons
P53 = P53 (Homo sapiens, UniProt P04637); settings: cited from earlier work
Mut Cx+GE organoids = experiment: Extracellular recording of local field potentials (LFP) in Rett syndrome fusion organoids; type: cell-based, human; settings: for high frequency oscillations (HFOs, about 200-500 Hz) / lower frequency / gamma oscillations (about 40-80 Hz) / spiking activity / spike frequency: Mut Cx+GE organoids treated 48-hr; for high frequency oscillations (HFOs, about 200-500 Hz) / lower frequency / gamma oscillations (about 40-80 Hz): 2 mM VPA or 10 μM Pifithrin-α; for spiking activity / spike frequency: 2 mM sodium valproate (VPA) or 10 μM Pifithrin-α
Mutant IPSCs = type: cell-based; settings: 10 μM, 48 hours

Sequence of P53 (P04637 whole entry, the tested form may be a part): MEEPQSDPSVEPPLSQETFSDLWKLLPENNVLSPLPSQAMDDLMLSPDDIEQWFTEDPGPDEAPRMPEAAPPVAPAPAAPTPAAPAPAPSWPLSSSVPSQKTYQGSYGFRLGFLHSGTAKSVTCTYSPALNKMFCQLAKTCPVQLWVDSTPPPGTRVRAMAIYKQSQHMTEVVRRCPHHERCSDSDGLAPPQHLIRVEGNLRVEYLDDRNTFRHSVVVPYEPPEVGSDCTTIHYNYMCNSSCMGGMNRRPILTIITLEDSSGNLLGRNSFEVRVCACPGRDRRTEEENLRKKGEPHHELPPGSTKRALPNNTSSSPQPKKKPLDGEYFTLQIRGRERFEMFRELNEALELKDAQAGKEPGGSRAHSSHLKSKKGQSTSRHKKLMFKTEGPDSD

Row | SMILES | synchronization of calcium transients / neural activities (Cx+GE organoids) | synchronization of calcium transients / neural activities (Cx+Cx organoids) | high frequency oscillations (HFOs, about 200-500 Hz) (Mut Cx+GE organoids) | lower frequency / gamma oscillations (about 40-80 Hz) (Mut Cx+GE organoids) | spiking activity / spike frequency (Mut Cx+GE organoids) | increased levels of P53 target genes (RT-PCR) (Mutant IPSCs) | other results
1 | C[N+]1(C)CCc2cc3c(cc2[C@H]1[C@@H]1OC(=O)c2c1ccc1c2OCO1)OCO3.[I-] [BMI, bicuculline methiodide] | spontaneous synchronization of neural activities; also recorded: epochs of nearly complete synchronization of calcium transients | minimal effect; also recorded: no such effect |  |  |  |  | hierarchical clustering: groups of neurons with correlated activity (Cx+GE organoids; Cx+GE organoids following BMI treatment): large groups of neurons with highly correlated activity; hierarchical clustering: groups of neurons with correlated activity (Cx+Cx organoids; Cx+Cx organoids following BMI treatment): only small groups
2 | COc1ccc(-c2ccc(=N)n(CCCC(=O)O)n2)cc1 [Gabazine] | epochs of nearly complete synchronization of calcium transients | no such effect |  |  |  |  | 
3 | Cc1ccc(C(=O)Cn2c3c(sc2=N)CCCC3)cc1 [Pifithrin α, 2-(2-imino-4,5,6,7-tetrahydrobenzo[d]thiazol-3(2H)-yl)-1-(p-tolyl)ethan-1-one hydrogen bromide] |  |  | suppressed HFOs | re-emergence of gamma oscillations | similarly reduced spike frequency | abrogated | cell senescence (P21 protein level by immunofluorescence) [1]: block cell senescence due to increased p53 activity; P53 inhibition (P53): effective P53 inhibitor; oscillatory activity (extracellular recording) (Mut Cx+GE organoids; Mut Cx+GE organoids (RTT) exposed to 10 μM for 48 hours, Day 100): reveal oscillatory activity at multiple frequencies; sustained oscillatory activity (PSD) (Mut Cx+GE organoids; Mut Cx+GE organoids exposed to 100 μM for 48 hours, Day 100): shows rescue of sustained oscillatory activity
4 | CC(=O)/N=c1\sc2c(n1CC(=O)c1ccc(C)cc1)CCCC2 [Pifithrin α-Ac, N-(3-(2-oxo-2-(p-tolyl)ethyl)-4,5,6,7-tetrahydrobenzo[d]thiazol-2(3H)-ylidene)aceta-mide] |  |  |  |  |  | abrogated | 
5 | Cc1ccc(-c2cn3c4c(sc3n2)CCCC4)cc1 [Pifithrin β, 2-(p-tolyl)-5,6,7,8-tetrahydroben-zo[d]imidazo[2,1-b]thiazole] |  |  |  |  |  | abrogated | 
6 | CCCC(CCC)C(=O)[O-].[Na+] [VPA, sodium valproate] |  |  | neither decreased HFOs | nor restored lower frequency oscillations | significantly reduced spiking activity |  | 
